According to patent US7838490B2, “Methods and compositions for inhibition of vascular permeability” (University of Virginia Patent Foundation, priority 2005, dated 2010):

Legend:
Erk [1] = test: phospho-Erk staining of lung sections from LPS-treated mice; type: in vivo; conditions: 6 h, peptides 1 mg, UO126 0.5 ml of 70 μM
Description: A. Mice were injected with Nck-blocking peptide (1 mg; comprising SEQ ID NO:7), control peptide (1 mg) or UO126 (0.5 ml of 70 μM), then treated with or without LPS as in FIG. 1. At 6 hours, the lungs were removed, sectioned, and stained for activated Erk using pT202/pY204 antibody. Small arrows indicate unidentified cells in control lungs that stain positively. Large arrows indicate conduit blood vessels.
C. Lungs from mice pretreated with 1 mg/ml PIX blocking peptide and exposed to LPS as in FIG. 3A were stained for phospho-Erk. […] Arrow indicates a conduit vessel.
Control animals inhaled saline.
Mouse lungs were inflated with an intratracheal instillation of PFA 4% at a constant pressure (20 cm H2O) for 15 minutes. Next, lungs were removed and fixed in PFA 4% for 24 h and embedded in paraffin. Sections (5 μm) were cut for IHC and treated with antigen unmasking solution (Vector Laboratories). Sections were stained with monoclonal rabbit anti p-ERK (1:400 Cell Signaling) overnight and detected with Vectastain Elite Kit (Vector Laboratories). Visualization was done with DAB (Dako Corp) and couterstained with hematoxylin. Images were acquired using 20 or 40× objective on a microscope (model BX51; Olympus) equipped with a digital camera (model DP70 Olympus) using ImagePro software program.

Erk [2] = test: Erk activation in BAECs (Western blotting, immunostaining); type: cell-based, bovine; conditions: 20 μg/ml peptide or 25 μM U0126 for 1 hour; for immunostaining for activated Erk: then 25 ng/ml VEGF 30 minutes; for activation of Erk by VEGF (Western blotting): then VEGF 30 min
Description: After 1 hour, 25 ng/ml VEGF was added for 30 minutes. Cells were then fixed and stained for activated Erk.
B. Cells as in A were extracted and analyzed for Erk phosphorylation by Western blotting.
D. BAECs were incubated with peptides and stimulated with VEGF as in C, then lysed and analyzed for Erk activation by Western blotting.
Coverslips were washed and mounted using FluoroMount (Invitrogen).

[3] = system: mice exposed to aerosolized LPS; test: LPS-induced pulmonary microvascular permeability (Evans blue dye extravasation)
Description: B. Mice inhaled LPS with control or Nck blocking peptide as in A. At 6 hours, they were injected with Evans blue dye and leakage into the lung assayed at 1 h.
B. Mice received intraperitoneal injections with the indicated amounts of the PIX blocking or control peptides. They were treated with aerosolized LPS for 6 h then leakage of Evans blue dye into the lung assayed as described in Methods.
Wild type male mice (C57B1/6, 8 to 12 weeks of age, Jackson Labs, Bar Harbor, Me.) were exposed to aerosolized LPS (Salmonella enteritidis, Sigma Co., St. Louis, Mo.) for 30 min. […] Control animals inhaled saline. Some mice received intraperitoneal (ip) injection of the PAK inhibitory or control peptides 30 min prior to treatment. […] Permeability was analyzed at 6 h using the Evans blue dye extravasation technique (Green et al., 1988). Briefly, Evans blue (20 mg/kg; Sigma) was injected intravenously 30 minutes prior to euthanasia. Lungs were perfused through the spontaneously beating right ventricle to remove intravascular dye. Lungs were removed and Evans blue was extracted as described (Peng et al., 2004). The absorption of Evans blue was measured at 620 nm and corrected for the presence of heme pigments: A620 (corrected)=A620−(1.426×A740+0.030) (Wang le et al., 2002). Extravasated Evans blue was calculated against a standard curve (micrograms Evans blue dye per gram lung).

BAECs = test: In vitro permeability: HRP leakage across BAEC monolayer on 3 μm filters; type: cell-based; conditions: bovine endothelial cells; peptide 20 μg/ml
Description: C. […] Cells were left untreated or stimulated for […] with 25 ng/ml VEGF, 50 ng/ml bFGF, or 10 μM histamine. Leakage of horseradish peroxidase (HRP) across the filter was assayed as described in Methods.
A. BAECs on filters with 3.0 μm pores were pretreated with 20 μg/ml PIX blocking or control peptides for 1 hour, then stimulated with VEGF for 30 minutes. HRP movement across the monolayer was assayed as described in Methods.
BAECs on FN-coated 3 μm filters at near-confluence were transfected with 0.5 μg cDNA using Effectene as described above. At 48 h, cells were pre-treated for 60 min with PAK peptides as indicated. For some experiments, cells were nucleofected, then plated on filters and grown to confluence for 48 hr. Filters were then placed in outer wells with 500 μl fresh DMEM without phenol red or serum. To each filter well was added 200 μl medium plus 50 μl of 1.5 μg/ml horseradish peroxidase (HRP) with or without cytokines as described. After 30 min, filters were removed and fixed, and the medium in the lower wells assayed for HRP as described (Stockton et al., 2004). Values were normalized to control, untreated wells.

HUVECs = test: In vitro permeability: HRP leakage across HUVEC monolayer; type: cell-based, human; conditions: peptide 20 μg/ml, not shown
Description: B. HUVECs were transfected with siRNA oligonucleotides specific to GIT1 or with control, scrambled siRNA. Total cell lysates at 72 hours were analyzed for GIT1 expression by Western blotting (top). Cells on filters were analyzed for permeability to HRP after treatment with VEGF (50 ng/ml), histamine (10 μM) or thrombin (0.2 U/ml).
The βPIX and GIT1 constructs were obtained from Dr. A. F. Horwitz. The ΔGBD βPIX (mutated for GIT1 binding) and ΔSHD mutant of GIT1 (mutated for PIX and MEK binding) were as described (Zhang et al., 2003). Dominant negative MEK1 was as described (Renshaw et al., 1997). GIT1 Smartpool siRNA oligos against human sequence were obtained from Dharmacon and the experiments were carried out in HUVECs. The Smartpool mixture contained 4 different siRNA oligos. The four different sense sequences are:
BAECs on FN-coated 3 μm filters at near-confluence were transfected with 0.5 μg cDNA using Effectene as described above. At 48 h, cells were pre-treated for 60 min with PAK peptides as indicated. For some experiments, cells were nucleofected, then plated on filters and grown to confluence for 48 hr. Filters were then placed in outer wells with 500 μl fresh DMEM without phenol red or serum. To each filter well was added 200 μl medium plus 50 μl of 1.5 μg/ml horseradish peroxidase (HRP) with or without cytokines as described. […]

βPIX = molecular target: T1, βPIX (Homo sapiens, UniProt Q14155); test: Pull-down from cell lysates with biotin-tagged peptides on streptavidin beads; type: binding; conditions: Western blotting
T1 construct: expressed in transfected cells
T1 sequence (Q14155 1-646 isoform Q14155-1): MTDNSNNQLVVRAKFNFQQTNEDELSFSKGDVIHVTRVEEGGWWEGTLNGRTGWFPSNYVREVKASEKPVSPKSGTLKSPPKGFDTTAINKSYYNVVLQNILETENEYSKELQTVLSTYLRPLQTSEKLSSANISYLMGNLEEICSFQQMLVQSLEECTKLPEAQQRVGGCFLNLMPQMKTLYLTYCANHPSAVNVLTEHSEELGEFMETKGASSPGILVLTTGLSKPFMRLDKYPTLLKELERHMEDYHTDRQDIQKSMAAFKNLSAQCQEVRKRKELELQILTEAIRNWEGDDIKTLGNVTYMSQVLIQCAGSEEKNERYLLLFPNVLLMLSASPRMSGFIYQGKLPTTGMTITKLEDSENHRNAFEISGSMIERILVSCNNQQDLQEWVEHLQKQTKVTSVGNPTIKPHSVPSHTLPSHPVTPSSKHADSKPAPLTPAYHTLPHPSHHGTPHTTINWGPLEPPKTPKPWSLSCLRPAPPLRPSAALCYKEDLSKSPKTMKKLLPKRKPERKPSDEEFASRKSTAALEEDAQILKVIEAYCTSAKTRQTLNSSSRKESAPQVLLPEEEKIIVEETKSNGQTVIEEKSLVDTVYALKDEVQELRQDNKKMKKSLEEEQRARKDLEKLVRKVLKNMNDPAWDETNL
Description: (§1) B. Cell lysates were incubated with peptides immobilized on streptavidin beads and the whole cell lysates (WCL) or bound proteins analyzed by Western blotting.
(§2) Cells were stimulated, washed with cold PBS, extracted with 0.5 ml cold immunoprecipitation (IP) buffer (20 mM Tris pH 7.6, 0.5% NP40, 250 mM NaCl, 5 mM EDTA, 3 mM EGTA; plus Sigma protease and phosphatase inhibitor cocktails) for 10 min. They were passed through an 18 gauge needle 3× and centrifuged for 10 min at 12,000×g in a microfuge. […] Anti-GIT1 and anti-βPIX were from Santa Cruz Biotechnology. […] For binding to peptides, 25 μg of biotin-tagged peptides were incubated with 25 μl of streptavidin beads for 30 min, then rinsed and incubated with 0.5 cell lysates for 30 min. Bound proteins were detected by Western blotting with the indicated antibodies. For βPIX, cells were transfected with HA-PIX and blots probed using anti-HA. Proteins were electrophoretically transferred to PVDF membranes, blocked with 5% milk in Tris-buffered saline (TBS) and probed overnight with primary antibodies in the same buffer. Membranes were washed 4×, probed with secondary antibodies for 2 h, and then visualized using chemiluminescence (ECL, Amersham).

cortactin = molecular target: T2, cortactin (Homo sapiens, UniProt Q14247); test: as above; type: binding; conditions: Western blotting
T2 construct: endogenous in cells
T2 sequence (Q14247 1-550): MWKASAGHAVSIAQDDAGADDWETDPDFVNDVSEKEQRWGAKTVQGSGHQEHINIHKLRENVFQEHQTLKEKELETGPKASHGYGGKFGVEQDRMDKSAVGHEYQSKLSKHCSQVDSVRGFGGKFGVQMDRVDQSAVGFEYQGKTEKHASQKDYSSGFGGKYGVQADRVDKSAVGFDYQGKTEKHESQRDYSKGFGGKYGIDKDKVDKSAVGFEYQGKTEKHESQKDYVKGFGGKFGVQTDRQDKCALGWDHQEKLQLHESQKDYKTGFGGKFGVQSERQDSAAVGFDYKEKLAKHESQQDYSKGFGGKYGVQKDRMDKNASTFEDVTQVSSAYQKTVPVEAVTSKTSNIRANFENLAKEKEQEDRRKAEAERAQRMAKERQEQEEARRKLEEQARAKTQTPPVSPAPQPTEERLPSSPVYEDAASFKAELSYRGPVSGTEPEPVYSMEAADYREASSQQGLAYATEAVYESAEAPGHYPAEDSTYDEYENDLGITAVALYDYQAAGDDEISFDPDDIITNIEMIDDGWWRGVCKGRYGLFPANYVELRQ
Description: as §1, §2

CD2AP = molecular target: T3, CD2AP (Homo sapiens, UniProt Q9Y5K6); test: as above; type: binding; conditions: higher amounts of cell lysates; not shown
T3 construct: endogenous in cells
T3 sequence (Q9Y5K6 whole entry, species assumed): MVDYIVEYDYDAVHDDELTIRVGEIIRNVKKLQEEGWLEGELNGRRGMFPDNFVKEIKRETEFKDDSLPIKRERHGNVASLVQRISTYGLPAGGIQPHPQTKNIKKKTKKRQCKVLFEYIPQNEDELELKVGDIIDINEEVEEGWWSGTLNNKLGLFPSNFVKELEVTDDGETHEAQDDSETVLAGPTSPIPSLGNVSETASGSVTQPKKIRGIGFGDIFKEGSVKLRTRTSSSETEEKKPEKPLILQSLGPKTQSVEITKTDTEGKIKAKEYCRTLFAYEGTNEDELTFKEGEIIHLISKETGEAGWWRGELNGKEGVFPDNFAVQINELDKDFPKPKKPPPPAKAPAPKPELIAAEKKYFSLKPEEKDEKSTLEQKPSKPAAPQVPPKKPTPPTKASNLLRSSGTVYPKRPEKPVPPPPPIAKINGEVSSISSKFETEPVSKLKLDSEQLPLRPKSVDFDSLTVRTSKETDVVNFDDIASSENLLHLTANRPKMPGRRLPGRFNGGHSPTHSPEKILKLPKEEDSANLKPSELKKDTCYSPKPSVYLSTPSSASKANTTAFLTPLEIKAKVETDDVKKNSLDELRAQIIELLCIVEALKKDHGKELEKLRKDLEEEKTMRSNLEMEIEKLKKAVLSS

DOCK180 = molecular target: T4, DOCK180 (Homo sapiens, UniProt Q14185); test: as above; type: binding; conditions: higher amounts of cell lysates; not shown
T4 construct: endogenous in cells

[4] = system: other SH3-containing proteins; conditions: cell lysates; Western blotting
Description: as §1, §2

[5] = system: interaction between PAK and PIX; conditions: BAECs, 20 μg/ml peptide 1 h, VEGF 30 min
Description: BAECs were incubated with PIX blocking or control peptide at 20 μg/ml for 1 h, then stimulated with VEGF for 30 min. Cells were rinsed, lysed, and βPIX immunoprecipitated. The IP's were analyzed by Western blotting.
Cells were stimulated, washed with cold PBS, extracted with 0.5 ml cold immunoprecipitation (IP) buffer (20 mM Tris pH 7.6, 0.5% NP40, 250 mM NaCl, 5 mM EDTA, 3 mM EGTA; plus Sigma protease and phosphatase inhibitor cocktails) for 10 min. They were passed through an 18 gauge needle 3× and centrifuged for 10 min at 12,000×g in a microfuge. Supernatants were precleared with 25 μl of Protein G-agarose beads and incubated with the indicated primary antibody for 2 hrs at 4°. […] 25 μl of protein A- or protein G-agarose beads were added and incubated for another 2 h while rotating at 4° C. Beads were sedimented and washed 3× with 0.5 ml IP buffer and separated by SDS-PAGE. […] Proteins were electrophoretically transferred to PVDF membranes, blocked with 5% milk in Tris-buffered saline (TBS) and probed overnight with primary antibodies in the same buffer. Membranes were washed 4×, probed with secondary antibodies for 2 h, and then visualized using chemiluminescence (ECL, Amersham).

actin cytoskeleton = conditions: BAECs; 20 μg/ml peptide; bFGF 60 min
Description: E. Cells incubated with peptides as in C and stimulated with bFGF for 60 min, then stained for F-actin.
Cells were fixed for 60 minutes in 3.5% formaldehyde, washed, and permeabilized for 10 minutes in 0.2% TX100. Coverslips were blocked with PBS containing 10% goat serum for 60 minutes, then probed 8 hours at 4° C. with 200 μl containing the following antibodies: phospho-ERK at 1:500; phospho-MEK at 1:500; phospho-PAK at 1:500; phospho-MLC at 1:500 (all from BioSource International); βPIX at 1:200 or GIT1 at 1:200 (Santa Cruz Biotechnology). Coverslips were washed and probed overnight at 4° C. with 200 μl anti-mouse IgG-Alexa 568 or anti-rabbit IgG-Alexa 488 (Molecular Probes) at 1:1000. Coverslips were washed and mounted using FluoroMount (Invitrogen).

Compound	Erk activation (phospho-Erk staining) in lung sections (Erk [1])	immunostaining for activated Erk (Erk [2])	activation of Erk by VEGF (Western blotting) (Erk [2])	induction of vascular leak by LPS (Evans blue dye) ([3]; 0.5 ml of 70 μM U0126 ip, 6 h)	leakage of Evans blue dye into the lung after inhalation of LPS ([3]; 1 mg peptide ip prior to aerosolized LPS, assayed at 6 h)	block of the increase in permeability in vitro in response to VEGF (BAECs)	block of the increase in permeability in vitro in response to VEGF (HUVECs)	binding of βPIX to immobilized peptide (βPIX)	binding of cortactin to immobilized peptide (cortactin)	binding of CD2AP to immobilized peptide (CD2AP)	binding of DOCK180 to immobilized peptide (DOCK180)	binding of other SH3-containing proteins to immobilized peptide [4]	amount of PIX in βPIX immunoprecipitates [5]	reduction of PAK in βPIX precipitates ([5]; peptide washed out before lysis)	increase in actin stress fibers in response to bFGF or VEGF (actin cytoskeleton)
N#CC(=C(/N)Sc1ccccc1N)/C(C#N)=C(\N)Sc1ccccc1N [U0126, reference compound]	blocked Erk activation throughout the tissue	nearly eliminated	blocked	significantly blocked											
YGRKKRRQRRRGKPPAPPMRNTSTM (listed as Homo sapiens) [Nck-blocking peptide]	largely prevented	decreased phosphoErk at cell-cell borders	blocked		strongly inhibited										
YGRKKRRQRRRGPPPVIAPRPEHTKSVYTR-K+Biotin [PIX-binding peptide]						approximately 80%	approximately 80%	bound βPIX with high efficiency	weak but reproducible binding	weak, specific binding	weak but nonspecific binding	no binding	no effect	about 70%	blocked
